From patent publication US4731451A, “N-((2-oxo-3(2H)benzothiazolyl)methyl)-2-chloroacetanilides” (Monsanto Company, priority 1980, dated 1988)

Tests used:
Assay type in all cases: in vivo
[1] = tested on: Barnyardgrass; assay: Pre-emergent herbicidal activity (Table II); details: 2-3 weeks
Protocol: (§1) The pre-emergence tests are conducted as follows:
(§2) A good grade of top soil is placed in aluminum pans and compacted to a depth of three-eighths to one-half inch from the top of the pan. On the top of the soil is placed a predetermined number of seeds or vegetative propagules of various plant species. The soil required to level fill the pans after seeding or adding vegetative propagules is weighed into a pan. A known amount of the active ingredient applied in a solvent or as a wettable powder suspension and the soil are thoroughly mixed, and used as a cover layer for prepared pans. After treatment, the pans are moved into a greenhouse bench where they are watered from below as needed to give adequate moisture for germination and growth.
(§3) Approximately 2-3 weeks after seeding and treating, the plants are observed and the results recorded. The herbicidal rating is obtained by means of fixed scale based on the percent injury of each plant species. The ratings are defined as follows: […]
(§4) The plant species utilized in one set of tests, the data for which are shown in Table II, are identified by letter in accordance with the following legend: […]

[2] = tested on: Canada Thistle; assay: Pre-emergent herbicidal activity (Table II); details: 2-3 weeks
Protocol: as §1, §2, §3, §4

[3] = tested on: Cocklebur; assay: Pre-emergent herbicidal activity (Table II); details: 2-3 weeks
Protocol: as §1, §2, §3, §4

[4] = tested on: Downy Brome; assay: Pre-emergent herbicidal activity (Table II); details: 2-3 weeks
Protocol: as §1, §2, §3, §4

[5] = tested on: Johnsongrass; assay: Pre-emergent herbicidal activity (Table II); details: 2-3 weeks
Protocol: as §1, §2, §3, §4

[6] = tested on: Lambsquarters; assay: Pre-emergent herbicidal activity (Table II); details: 2-3 weeks
Protocol: as §1, §2, §3, §4

[7] = tested on: Morningglory; assay: Pre-emergent herbicidal activity (Table II); details: 2-3 weeks
Protocol: as §1, §2, §3, §4

[8] = tested on: Quackgrass; assay: Pre-emergent herbicidal activity (Table II); details: 2-3 weeks
Protocol: as §1, §2, §3, §4

[9] = tested on: Smartweed; assay: Pre-emergent herbicidal activity (Table II); details: 2-3 weeks
Protocol: as §1, §2, §3, §4

[10] = tested on: Velvetleaf; assay: Pre-emergent herbicidal activity (Table II); details: 2-3 weeks
Protocol: as §1, §2, §3, §4

[11] = tested on: Yellow Nutsedge; assay: Pre-emergent herbicidal activity (Table II); details: 2-3 weeks
Protocol: as §1, §2, §3, §4

[12] = tested on: Barnyardgrass; assay: Pre-emergent herbicidal activity (Table III)
Protocol: as §1, §2, §3
(§5) The compounds were further tested by utilizing the above procedure on the following plant species: […]

[13] = tested on: Cocklebur; assay: Pre-emergent herbicidal activity (Table III)
Protocol: as §1, §2, §3, §5

[14] = tested on: Crabgrass; assay: Pre-emergent herbicidal activity (Table III)
Protocol: as §1, §2, §3, §5

[15] = tested on: Downy Brome; assay: Pre-emergent herbicidal activity (Table III)
Protocol: as §1, §2, §3, §5

[16] = tested on: Hemp Sesbania; assay: Pre-emergent herbicidal activity (Table III)
Protocol: as §1, §2, §3, §5

[17] = tested on: Lambsquarters; assay: Pre-emergent herbicidal activity (Table III)
Protocol: as §1, §2, §3, §5

[18] = tested on: Morningglory; assay: Pre-emergent herbicidal activity (Table III)
Protocol: as §1, §2, §3, §5

[19] = tested on: Panicum; assay: Pre-emergent herbicidal activity (Table III)
Protocol: as §1, §2, §3, §5

[20] = tested on: Rice; assay: Pre-emergent herbicidal activity (Table III)
Protocol: as §1, §2, §3, §5

[21] = tested on: Smartweed; assay: Pre-emergent herbicidal activity (Table III)
Protocol: as §1, §2, §3, §5

[22] = tested on: Sorghum; assay: Pre-emergent herbicidal activity (Table III)
Protocol: as §1, §2, §3, §5

[23] = tested on: Soybean; assay: Pre-emergent herbicidal activity (Table III)
Protocol: as §1, §2, §3, §5

[24] = tested on: Sugarbeet; assay: Pre-emergent herbicidal activity (Table III)
Protocol: as §1, §2, §3, §5

[25] = tested on: Velvetleaf; assay: Pre-emergent herbicidal activity (Table III)
Protocol: as §1, §2, §3, §5

[26] = tested on: Wheat; assay: Pre-emergent herbicidal activity (Table III)
Protocol: as §1, §2, §3, §5

[27] = tested on: Wild Buckwheat; assay: Pre-emergent herbicidal activity (Table III)
Protocol: as §1, §2, §3, §5

Measured: Herbicidal rating
Further: ranges in brackets are in %.

COc1cccc(C)c1N(Cn1c(=O)sc2ccccc21)C(=O)CCl [Example 2, N-(2'-methoxy-6'-methyl)-N-[(2-oxo-3(2H)-benzothiazolyl)methyl]-2-chloroacetanilide]
2 (50-74): [4]; 11.2 kg/ha | [8]; 5.6 kg/ha | [12]; 0.056 kg/ha | [16]; 5.6 kg/ha | [17]; 0.28 kg/ha | [19]; 0.056 kg/ha | [21]; 1.12 kg/ha | [21]; 5.6 kg/ha | [26]; 5.6 kg/ha
0 (0-24): [2]; 5.6 kg/ha | [2]; 11.2 kg/ha | [3]; 5.6 kg/ha | [3]; 11.2 kg/ha | [5]; 5.6 kg/ha | [5]; 11.2 kg/ha | [7]; 5.6 kg/ha | [7]; 11.2 kg/ha | [9]; 5.6 kg/ha | [9]; 11.2 kg/ha | [10]; 5.6 kg/ha | [10]; 11.2 kg/ha | [12]; 0.0112 kg/ha | [13]; 0.0112 kg/ha | [13]; 0.056 kg/ha | [13]; 0.28 kg/ha | [13]; 1.12 kg/ha | [13]; 5.6 kg/ha | [14]; 0.0112 kg/ha | [14]; 0.056 kg/ha | [15]; 0.0112 kg/ha | [15]; 0.056 kg/ha | [16]; 0.0112 kg/ha | [16]; 0.056 kg/ha | [16]; 0.28 kg/ha | [16]; 1.12 kg/ha | [17]; 0.0112 kg/ha | [17]; 0.056 kg/ha | [18]; 0.0112 kg/ha | [18]; 0.056 kg/ha | [18]; 0.28 kg/ha | [18]; 1.12 kg/ha | [18]; 5.6 kg/ha | [19]; 0.0112 kg/ha | [20]; 0.0112 kg/ha | [20]; 0.056 kg/ha | [21]; 0.0112 kg/ha | [21]; 0.056 kg/ha | [22]; 0.0112 kg/ha | [22]; 0.056 kg/ha | [22]; 0.28 kg/ha | [23]; 0.0112 kg/ha | [23]; 0.056 kg/ha | [23]; 0.28 kg/ha | [23]; 1.12 kg/ha | [23]; 5.6 kg/ha | [24]; 0.0112 kg/ha | [24]; 0.056 kg/ha | [24]; 0.28 kg/ha | [24]; 1.12 kg/ha | [24]; 5.6 kg/ha | [25]; 0.0112 kg/ha | [25]; 0.056 kg/ha | [25]; 0.28 kg/ha | [25]; 1.12 kg/ha | [25]; 5.6 kg/ha | [26]; 0.0112 kg/ha | [26]; 0.056 kg/ha | [26]; 0.28 kg/ha | [26]; 1.12 kg/ha | [27]; 0.0112 kg/ha | [27]; 0.056 kg/ha | [27]; 0.28 kg/ha | [27]; 1.12 kg/ha | [27]; 5.6 kg/ha
3 (75-100): [1]; 5.6 kg/ha | [1]; 11.2 kg/ha | [11]; 5.6 kg/ha | [11]; 11.2 kg/ha | [12]; 0.28 kg/ha | [12]; 1.12 kg/ha | [12]; 5.6 kg/ha | [14]; 1.12 kg/ha | [14]; 5.6 kg/ha | [15]; 1.12 kg/ha | [15]; 5.6 kg/ha | [17]; 1.12 kg/ha | [19]; 1.12 kg/ha | [19]; 5.6 kg/ha | [20]; 1.12 kg/ha | [20]; 5.6 kg/ha
1 (25-49): [4]; 5.6 kg/ha | [6]; 5.6 kg/ha | [6]; 11.2 kg/ha | [8]; 11.2 kg/ha | [14]; 0.28 kg/ha | [15]; 0.28 kg/ha | [17]; 5.6 kg/ha | [19]; 0.28 kg/ha | [20]; 0.28 kg/ha | [21]; 0.28 kg/ha | [22]; 1.12 kg/ha | [22]; 5.6 kg/ha
